1 molecule from BindingDB's records for patent US20250197396 (Lieber Institute, 2025) can be followed below.

The target in this experiment is Inositol hexakisphosphate kinase 1 (Homo sapiens, UniProt Q92551). The experiment can be described thus: Not found.
Description: Not found

Chain of Inositol hexakisphosphate kinase 1 (Q92551 whole entry): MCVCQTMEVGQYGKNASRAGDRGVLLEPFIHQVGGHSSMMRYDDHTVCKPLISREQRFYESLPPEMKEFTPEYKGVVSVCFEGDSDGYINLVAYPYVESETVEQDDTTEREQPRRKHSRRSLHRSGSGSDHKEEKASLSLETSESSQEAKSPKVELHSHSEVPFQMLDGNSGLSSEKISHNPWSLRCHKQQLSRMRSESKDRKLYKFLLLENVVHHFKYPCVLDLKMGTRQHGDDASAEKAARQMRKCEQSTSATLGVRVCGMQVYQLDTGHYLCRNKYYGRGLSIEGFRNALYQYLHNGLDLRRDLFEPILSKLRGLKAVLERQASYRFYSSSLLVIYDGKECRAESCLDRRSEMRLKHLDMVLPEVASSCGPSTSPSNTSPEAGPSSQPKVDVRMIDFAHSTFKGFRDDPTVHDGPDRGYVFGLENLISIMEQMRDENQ

What is called IC50 is the midpoint of a concentration-inhibition curve. Read a low IC50 as greater potency. `O=C(O)c1ccc2c(c1)C1(CCN(Cc3ncc(Cl)cc3Cl)CC1)C(=O)N2` [US20250197396, Compound 18a]: the IC50 was less than 0.3 µM.
